Data taken from patent US5348962A, “Hydroxyquinolone derivatives compounds which have pharmaceutical utility” (Merck Sharpe & Dohme Ltd., priority 1990, dated 1994).

System: AMPA receptor
Experiment: Cortical slice studies: responses to AMPA in rat cortical slice
Assay type: cell-based
Details: from righthand shift in AMPA concentration-response curves, read-out: apparent equilibrium constant (Kb) in response to AMPA
Experimental: The compounds useful in this invention potently and selectively block responses to NMDA and/or AMPA in a brain slice from rat cortex, and inhibit the binding of agonists and antagonists to the strychnine-insensitive site present on the NMDA receptor and/or AMPA binding to rat forebrain membranes.
The effects of compounds of the invention on responses to NMDA and AMPA were assessed using the rat cortical slice as described by Wong et al., Proc. Natl. Acad. Sci. USA, 1986, 83, 7104. The apparent equilibrium constant (Kb) was calculated from the righthand shift in the NMDA or AMPA concentration-response curves produced by the compound under test.

## O=c1[nH]c2cc([N+](=O)[O-])ccc2c(O)c1-c1ccccc1 [Example 12, 4-Hydroxy-7-nitro-3-phenyl-2(1H)-quinolone]
  Kb: < 150 µM
